Reference: publication PMC6412877 (Molecules, 2019)
Numbered stars: 1 amine (or outer) side, 2 acyl side, 3 side chain; on linkers, the order of the positions; unused ones are H or OH. Side chains are listed from the residue outwards. Ends that are not written are not given here. Peptide text beside a SMILES is read from it. * marks the point of attachment. C18 diacid = O=C(O)CCCCCCCCCCCCCCCCC(=O)*; γGlu = O=C(O)[C@H](CCC(=O)[*:2])N[*:1]; AEEA = NCCOCCOCC(=O)O

Experiments:
isolated ECD (GLP-1R) = settings: ref [23],[24]; cited from earlier work
Excerpt: (§1) GLP-1R, is defined by seven transmembrane helices, an extracellular N terminus, and an intracellular C terminus, which is ligand binding via the extracellular and intracellular face, respectively, belongs to family B1 of the seven-transmembrane G protein-coupled receptors.

full-length GLP-1R = settings: ref [23],[24]; cited from earlier work
Excerpt: as §1

GLP-1R ECD = GLP-1R ECD (Homo sapiens, UniProt P43220); experiment: SPR binding affinity for GLP-1R extracellular domain (Biacore 8K); settings: Table 1, peptides 01-12
Sequence of GLP-1R ECD (P43220 24-139 limits assumed): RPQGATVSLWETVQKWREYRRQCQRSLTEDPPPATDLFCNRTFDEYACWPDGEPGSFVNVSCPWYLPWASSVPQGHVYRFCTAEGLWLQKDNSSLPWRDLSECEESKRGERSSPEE
Protocol: Surface Plasmon Resonance (SPR) measurements were performed with Biacore 8K (GE Health, Boston, MA, USA) for evaluating the associating affinity peptides for GLP1R ECD. Experimental details were carried out according to the Biacore 8K user’s manual.

Mouse GLP-1R = molecular target: T1, Mouse GLP-1R (Mus musculus, UniProt O35659); experiment: In vitro GLP-1R activation, mouse receptor; assay type: cell-based; settings: mean ± SD
T1 sequence (O35659 22-463): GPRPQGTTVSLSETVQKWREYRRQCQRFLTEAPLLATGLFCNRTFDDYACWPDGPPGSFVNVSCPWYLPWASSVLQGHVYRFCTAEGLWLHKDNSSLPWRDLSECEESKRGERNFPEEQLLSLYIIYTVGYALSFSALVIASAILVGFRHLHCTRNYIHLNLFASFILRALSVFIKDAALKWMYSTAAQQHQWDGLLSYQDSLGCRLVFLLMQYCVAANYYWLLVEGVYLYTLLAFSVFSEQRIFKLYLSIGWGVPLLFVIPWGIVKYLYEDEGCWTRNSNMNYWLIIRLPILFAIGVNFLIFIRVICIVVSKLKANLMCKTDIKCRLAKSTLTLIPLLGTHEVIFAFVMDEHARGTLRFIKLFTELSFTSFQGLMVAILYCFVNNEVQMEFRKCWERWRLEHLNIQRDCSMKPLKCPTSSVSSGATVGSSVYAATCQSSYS

Human GLP-1R = Human GLP-1R (Homo sapiens, UniProt P43220); experiment: In vitro GLP-1R activation, human receptor; assay type: cell-based; settings: mean ± SD
Sequence of Human GLP-1R (P43220 24-463): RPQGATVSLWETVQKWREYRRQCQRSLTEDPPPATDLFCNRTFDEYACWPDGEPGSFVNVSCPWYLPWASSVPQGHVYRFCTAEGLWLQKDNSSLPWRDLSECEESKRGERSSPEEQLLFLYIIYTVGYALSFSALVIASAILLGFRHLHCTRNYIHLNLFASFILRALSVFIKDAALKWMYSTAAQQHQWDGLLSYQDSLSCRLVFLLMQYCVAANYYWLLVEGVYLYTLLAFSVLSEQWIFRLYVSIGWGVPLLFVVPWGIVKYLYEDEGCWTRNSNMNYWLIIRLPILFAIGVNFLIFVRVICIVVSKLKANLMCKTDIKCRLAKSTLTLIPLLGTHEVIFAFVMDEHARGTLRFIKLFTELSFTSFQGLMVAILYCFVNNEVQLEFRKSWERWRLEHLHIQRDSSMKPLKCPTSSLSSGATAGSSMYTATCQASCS

[1] = test system: diet-induced obesity (DIO) mice; experiment: Oral glucose tolerance test (glucoregulatory and insulin secretion assay) in DIO mice; assay type: in vivo; settings: male DIO mice, n = 6
Protocol: Half hour after single dose injection of different samples, the mice were administrated with glucose (2.0 g/kg), and then the blood glucose and insulin levels were detected before and at 15, 30, 45, 60 and 120 min by the ELISA kit (Merck).

DIO mice [2] = experiment: Hypoglycemic duration test in non-fasted DIO mice; assay type: in vivo; settings: male DIO mice, not fasted, 25 nmol/kg single s.c., n = 6
Protocol: The antihyperglycemic efficacy of PEP20 was investigated in male DIO mice. The BGLs of PEP20 group decreased rapidly to the normoglycemic state (<15 mmol/L) in 1 h after the administration of 25 nmol/kg. […] BGLs were detected using a one-touch blood glucose meter. Glucose-lowering duration under 8.35 mmol/L BGL was also checked

DIO mice [3] = experiment: Chronic in vivo study, 4 weeks, DIO mice; settings: 25 nmol/kg s.c. once daily for 4 weeks
Protocol: To further examine the therapeutic potential of PEP20, chronic in vivo studies were performed by a daily subcutaneous (s.c.) injection of PEP20 (25 nmol/kg) in DIO mice for 4 weeks. […] Body weight, food intake, and water consumption were measured daily. DIO mice were subjected to OGTT at week 0 and at week 4 to evaluate the advance of diabetic statuses. HbA1c were measured after the treatment using an AU680 automatic biochemical analyzer (Beckman Coulter, Fullerton, […]).

Row | Molecule | Kd (GLP-1R ECD) | Emax (Mouse GLP-1R) | Emax (Human GLP-1R) | further results
1 | CC[C@H](C)[C@H](NC(=O)[C@H](Cc1ccccc1)NC(=O)[C@H](CCC(=O)O)NC(=O)[C@H](CCCCN)NC(=O)[C@H](C)NC(=O)[C@H](C)NC(=O)[C@H](CCC(N)=O)NC(=O)CNC(=O)[C@H](CCC(=O)O)NC(=O)[C@H](CC(C)C)NC(=O)[C@H](Cc1ccc(O)cc1)NC(=O)[C@H](CO)NC(=O)[C@H](CO)NC(=O)[C@@H](NC(=O)[C@H](CC(=O)O)NC(=O)[C@H](CO)NC(=O)[C@@H](NC(=O)[C@H](Cc1ccccc1)NC(=O)[C@@H](NC(=O)CNC(=O)[C@H](CCC(=O)O)NC(=O)[C@H](C)NC(=O)[C@@H](N)Cc1c[nH]cn1)[C@@H](C)O)[C@@H](C)O)C(C)C)C(=O)N[C@@H](C)C(=O)N[C@@H](Cc1c[nH]c2ccccc12)C(=O)N[C@@H](CC(C)C)C(=O)N[C@H](C(=O)N[C@@H](CCCCN)C(=O)NCC(=O)N[C@@H](CCCNC(=N)N)C(N)=O)C(C)C [GLP-1, Glucagon-like peptide-1] |  |  |  | IC50 (isolated ECD (GLP-1R)): ~100 nM; IC50 (full-length GLP-1R): ~1 nM
2 | CC(C)C[C@H](NC(=O)[C@H](Cc1ccc(O)cc1)NC(=O)[C@H](C)NC(=O)[C@H](CO)NC(=O)[C@@H]1CCCN1C(=O)[C@H](CO)NC(=O)[C@H](CO)NC(=O)[C@H](Cc1ccc(O)cc1)NC(=O)[C@H](Cc1ccccc1)NC(=O)[C@@H](N)Cc1ccccc1)C(=O)N[C@@H](CCC(=O)O)C(=O)N[C@H](C(=O)O)[C@@H](C)O [PEP01] | 740 nM |  |  | 
3 | CC(C)C[C@H](NC(=O)[C@H](Cc1ccc(O)cc1)NC(=O)[C@H](CO)NC(=O)[C@H](CO)NC(=O)[C@@H](NC(=O)CNC(=O)[C@H](CCC(=O)O)NC(=O)[C@H](CO)NC(=O)[C@@H](NC(=O)[C@@H](N)Cc1ccccc1)[C@@H](C)O)[C@@H](C)O)C(=O)N[C@@H](CCC(=O)O)C(=O)N[C@H](C(=O)O)[C@@H](C)O [PEP04] | 3990 nM |  |  | 
4 | CC[C@H](C)[C@H](NC(=O)[C@H](Cc1ccccc1)NC(=O)[C@@H](N)CCC(=O)O)C(=O)N[C@@H](C)C(=O)N[C@H](C(=O)N[C@@H](C)C(=O)N[C@@H](Cc1c[nH]c2ccccc12)C(=O)N[C@@H](CC(C)C)C(=O)N[C@H](C(=O)N[C@@H](CCCCN)C(=O)N[C@@H](CCC(N)=O)C(=O)N[C@H](C(=O)O)[C@@H](C)O)C(C)C)[C@@H](C)O [PEP06] | 2590 nM |  |  | 
5 | CC(C)C[C@H](NC(=O)[C@H](CCCCN)NC(=O)[C@H](C)NC(=O)[C@H](CO)NC(=O)[C@@H]1CCCN1C(=O)[C@H](CO)NC(=O)[C@H](CO)NC(=O)[C@H](Cc1ccc(O)cc1)NC(=O)[C@H](Cc1ccccc1)NC(=O)[C@@H](N)Cc1ccccc1)C(=O)N[C@@H](CCC(=O)O)C(=O)N[C@H](C(=O)NCC(=O)NCC(=O)N1CCC[C@H]1C(=O)N[C@@H](CO)C(=O)N[C@@H](CO)C(=O)NCC(=O)N[C@@H](C)C(=O)N1CCC[C@H]1C(=O)N1CCC[C@H]1C(=O)N1CCC[C@H]1C(=O)N[C@@H](CO)C(N)=O)[C@@H](C)O [PEP13] |  | 110 ± 9.4% | 96 ± 4.1% | EC50 (Mouse GLP-1R): 0.051 ± 0.009 nM; EC50 (Human GLP-1R): 0.064 ± 0.022 nM
6 | C[C@H](NC(=O)[C@H](CO)NC(=O)[C@@H]1CCCN1C(=O)[C@H](CO)NC(=O)[C@H](CO)NC(=O)[C@H](Cc1ccc(O)cc1)NC(=O)[C@H](Cc1ccccc1)NC(=O)[C@@H](N)Cc1ccccc1)C(=O)N[C@@H](Cc1ccc(O)cc1)C(=O)N[C@@H](CCCCN)C(=O)N[C@@H](CCC(=O)O)C(=O)N[C@H](C(=O)NCC(=O)NCC(=O)N1CCC[C@H]1C(=O)N[C@@H](CO)C(=O)N[C@@H](CO)C(=O)NCC(=O)N[C@@H](C)C(=O)N1CCC[C@H]1C(=O)N1CCC[C@H]1C(=O)N1CCC[C@H]1C(=O)N[C@@H](CO)C(N)=O)[C@@H](C)O [PEP14] |  | 150 ± 10.9% | 105 ± 9.2% | 
7 | CC(C)C[C@H](NC(=O)[C@H](CCCCNC(=O)COCCOCCNC(=O)COCCOCCNC(=O)CC[C@H](NC(=O)CCCCCCCCCCCCCCCCC(=O)O)C(=O)O)NC(=O)[C@H](C)NC(=O)[C@H](CO)NC(=O)[C@@H]1CCCN1C(=O)[C@H](CO)NC(=O)[C@H](CO)NC(=O)[C@H](Cc1ccc(O)cc1)NC(=O)[C@H](Cc1ccccc1)NC(=O)[C@@H](N)Cc1ccccc1)C(=O)N[C@@H](CCC(=O)O)C(=O)N[C@H](C(=O)NCC(=O)NCC(=O)N1CCC[C@H]1C(=O)N[C@@H](CO)C(=O)N[C@@H](CO)C(=O)NCC(=O)N[C@@H](C)C(=O)N1CCC[C@H]1C(=O)N1CCC[C@H]1C(=O)N1CCC[C@H]1C(=O)N[C@@H](CO)C(=O)O)[C@@H](C)O [PEP17] (H-FFYSSPSAK([AEEA-AEEA-γGlu-C18 diacid])LETGGPSSGAPPPS-OH; N-terminus and C-terminus assumed) |  | 68 ± 5.9% | 79 ± 6.4% | 
8 | C[C@H](NC(=O)[C@H](CO)NC(=O)[C@@H]1CCCN1C(=O)[C@H](CO)NC(=O)[C@H](CO)NC(=O)[C@H](Cc1ccc(O)cc1)NC(=O)[C@H](Cc1ccccc1)NC(=O)[C@@H](N)Cc1ccccc1)C(=O)N[C@@H](Cc1ccc(O)cc1)C(=O)N[C@@H](CCCCNC(=O)COCCOCCNC(=O)COCCOCCNC(=O)CC[C@H](NC(=O)CCCCCCCCCCCCCCCCC(=O)O)C(=O)O)C(=O)N[C@@H](CCC(=O)O)C(=O)N[C@H](C(=O)NCC(=O)NCC(=O)N1CCC[C@H]1C(=O)N[C@@H](CO)C(=O)N[C@@H](CO)C(=O)NCC(=O)N[C@@H](C)C(=O)N1CCC[C@H]1C(=O)N1CCC[C@H]1C(=O)N1CCC[C@H]1C(=O)N[C@@H](CO)C(=O)O)[C@@H](C)O [PEP18] |  | 78 ± 3.5% | 78 ± 6.4% | 
9 | CC(C)C[C@H](NC(=O)[C@H](Cc1ccc(O)cc1)NC(=O)[C@H](C)NC(=O)[C@H](CO)NC(=O)[C@@H]1CCCN1C(=O)[C@H](CO)NC(=O)[C@H](CO)NC(=O)[C@H](Cc1ccc(O)cc1)NC(=O)[C@H](Cc1ccccc1)NC(=O)[C@@H](N)Cc1ccccc1)C(=O)N[C@@H](CCCCNC(=O)COCCOCCNC(=O)COCCOCCNC(=O)CC[C@H](NC(=O)CCCCCCCCCCCCCCCCC(=O)O)C(=O)O)C(=O)N[C@H](C(=O)NCC(=O)NCC(=O)N1CCC[C@H]1C(=O)N[C@@H](CO)C(=O)N[C@@H](CO)C(=O)NCC(=O)N[C@@H](C)C(=O)N1CCC[C@H]1C(=O)N1CCC[C@H]1C(=O)N1CCC[C@H]1C(=O)N[C@@H](CO)C(=O)O)[C@@H](C)O [PEP19] (H-FFYSSPSAYLK([AEEA-AEEA-γGlu-C18 diacid])TGGPSSGAPPPS-OH; N-terminus and C-terminus assumed) |  | 83 ± 3.2% | 89 ± 6.2% | 
10 | CC(C)C[C@H](NC(=O)[C@H](Cc1ccc(O)cc1)NC(=O)[C@H](C)NC(=O)[C@H](CO)NC(=O)[C@@H]1CCCN1C(=O)[C@H](CO)NC(=O)[C@H](CO)NC(=O)[C@H](Cc1ccc(O)cc1)NC(=O)[C@H](Cc1ccccc1)NC(=O)[C@@H](N)Cc1ccccc1)C(=O)N[C@@H](CCC(=O)O)C(=O)N[C@@H](CCCCNC(=O)COCCOCCNC(=O)COCCOCCNC(=O)CC[C@H](NC(=O)CCCCCCCCCCCCCCCCC(=O)O)C(=O)O)C(=O)NCC(=O)NCC(=O)N1CCC[C@H]1C(=O)N[C@@H](CO)C(=O)N[C@@H](CO)C(=O)NCC(=O)N[C@@H](C)C(=O)N1CCC[C@H]1C(=O)N1CCC[C@H]1C(=O)N1CCC[C@H]1C(=O)N[C@@H](CO)C(=O)O [PEP20] (H-FFYSSPSAYLEK([AEEA-AEEA-γGlu-C18 diacid])GGPSSGAPPPS-OH; N-terminus and C-terminus assumed) |  | 99 ± 7.2% | 98 ± 8.1% | plasma insulin concentrations from 15 to 60 min versus control ([1]; OGTT, 25 nmol/kg s.c., ELISA): significantly greater than those of the control group; glucose-lowering percentage compared with vehicle control group ([1]; OGTT, 25 nmol/kg single s.c., glucose 2.0 g/kg): 60.2%; blood glucose level (BGL) half an hour after glucose challenge ([1]; 25 nmol/kg single s.c., oral glucose 2.0 g/kg, vehicle 23.6 ± 3.1): 10.1 mmol/L; duration of glucose-lowering effect (DIO mice [2]; followed for 96 h): at least 96 h; lowering of glucose level for 0–96 h (AUC0–96 h) compared with vehicle group (DIO mice [2]): 63.8%; time to normoglycemic state (<15 mmol/L) after administration (DIO mice [2]): ≤ 1 h; body weight gain (DIO mice [3]; n = 6): effectively suppressed; decrease of OGTT AUC at 4 weeks compared with week 0 (DIO mice [3]; n = 6): 22.1%; food intake (DIO mice [3]; n = 6): effectively suppressed; HbA1c versus control group (DIO mice [3]; p < 0.001, n = 6): reduction
11 | FFYSSPSAYLEKGGPSSGAPPPS [PEP16] |  | 93 ± 9.3% | 92 ± 7.1% | 
12 | FFYSSPSAYLKTGGPSSGAPPPS [PEP15] |  | 73 ± 6.4% | 78 ± 9.1% | 
13 | KQYSSPTAWLVG [PEP03] | 1750 nM |  |  | 
